Tests used:
[1] = cited from earlier work
[2] = T-maze continuous alternation task (T-CAT) with solifenacin and otenzepad; type: in vivo, Male Swiss mice
Source text: Evaluation of Cognition with Solifenacin and Otenzepad in the T-Maze Alternation Task in Mice The T-maze continuous alternation task (T-CAT) is useful as model for studying compounds with cognitive enhancing properties. The T-maze consists of 2 choice arms and 1 start arm mounted to a square centre. Manual doors are provided to close specific arms during the force choice alternation task. Male Swiss mice (4-6 weeks old), N=10 per treatment group were used, and were pre-treated with: • Solifenacin at the dose that blocked fecal pellet excretion in Experiment 2 of Example 1. […] Mice were randomly assigned to one of the different experimental treatment groups. Each animal was identified by its group name, cage number, series (day) of experiment, and number (1 to 10) written with permanent ink on the tail. The T-maze apparatus is made of gray Plexiglas with a main stem (55 cm long×10 cm wide×20 cm high) and two arms (30 cm long×10 cm wide×20 cm high) positioned at 90 degree angle relative to the main stem. […] The percentage of alternation over the 14 free-choice trials was determined for each mouse and was used as an index of working memory performance. […] The drug-induced improvement of memory was calculated by setting the respective response of the saline/vehicle as 100% and that of the test group as 0% reversion. […]

[3] = Dose-response to otenzepad in a mouse model of diarrhea (fecal pellet count); type: in vivo, Male Swiss mice; conditions: increasing doses of otenzepad, T0 to T+4 h
Source text: Male Swiss mice (4-6 weeks old), N=10 per treatment group were used, and treated with either vehicle (vehicle group) or increasing doses of otenzepad, a representative M2-antagonist. Mice were randomly assigned to one of two experimental groups (vehicle; or increasing doses of otenzepad). Each animal was identified by its group name, cage number, series (day) of experiment, and number (1 to 10) written with permanent ink on the tail. Mice were placed individually in cages without any bedding materials. During the experiment the number of fecal pellets was counted at different time-points, starting one hour before the time of the administration of the test compound (T0), as outlined below:
(§1) T−1 h to T0: counting of the accumulated fecal pellets excreted.
T0: administration of the test compound.
T0 to T+2 h: counting of the accumulated fecal pellets excreted.
T+2 h to T+4 h: counting of the accumulated fecal pellets excreted.
(§2) The total number of fecal pellets for each mouse was counted over time. An analysis of variance (ANOVA) was performed on the results. Fisher's Protected Least Significant Difference was used for pairwise comparisons; p values≤0.05 were considered significant. Grubbs' test (http://www.graphpad.com/quickcalcs/Grubbsl.cfm) was used to detect outliers for each parameter in each experimental group.

[4] = young animals; cited from earlier work
[5] = aged memory impaired rats; cited from earlier work
[6] = traumatic brain-injured rats; cited from earlier work
[7] = cited from earlier work; remark: listed apart in the source
[8] = clinical study; cited from earlier work
[9] = cited from earlier work; remark: listed apart in the source
[10] = in vivo; cited from earlier work
[11] = in vivo; cited from earlier work; remark: listed apart in the source
[12] = bilateral intrastriatal infusion, female rats; cited from earlier work
[13] = transdermal, rats, [14C] label; cited from earlier work
[14] = Antagonism of otenzepad-induced diarrhea in mice by solifenacin; type: in vivo, Male Swiss mice; conditions: solifenacin 2 to 40 mg/kg given 30 min before otenzepad
Procedure: Male Swiss mice (4-6 weeks old), N=10 per treatment group were used. Animals were pretreated with solifenacin (a representative peripheral muscarinic receptor antagonist) or vehicle; 30 minutes later animals were treated with otenzepad at a dose that caused diarrhea (as determined in Experiment 1). The dose of solifenacin ordinarily ranged from 2 to 40 mg/kg. Mice were placed individually in cages without any bedding materials. During the experiment the number of fecal pellets was counted at different time-points as outlined below:
as §1
T0: administration of solifenacin.
T30 min: administration of vehicle or otenzepad.
T 30 min to T 2.5 h: counting of accumulated fecal pellets excreted.
T+2.5 h to T+4.5 h: counting of accumulated fecal pellets excreted.
as §2, with “comparisons. The” for “comparisons;”, “value≤0.05” for “values≤0.05”, “(http//www at graphpad.com/quickcalcs/Grubbs.cfm)” for “(http://www.graphpad.com/quickcalcs/Grubbsl.cfm)”

[15] = absorbed amount; cited from earlier work

CCN(CC)CC1CCCCN1CC(=O)N1c2ccccc2C(=O)Nc2cccnc21 (racemic) [otenzepad, (±)11-[[2-[(diethylamino)methyl]-1-piperidinyl]acetyl]-5,11-dihydro-6H-pyrido[2,3-b][1,4]benzodiazepin-6-one]
subjects with mild and tolerable adverse events (palpitations, dry mouth, headache) ([1]; 270 to 810 mg/day): about 20% | muscarinic adverse effects ([1]; single oral doses of 120, 240 and 480 mg): does not induce manifest muscarinic adverse effects | cognition (percentage of alternation, working memory) ([2]; two doses of otenzepad, in the presence of solifenacin): improves cognition in a dose-dependent manner | diarrhea (number of fecal pellets) [3]: dose-dependently causes diarrhea

CCCC(C)(C)C(=O)N(CC)CCCC1CCN(CC(=O)N2c3ccc(Cl)cc3C(=O)Nc3cccnc32)CC1 [BIBN-99, 5,11-dihydro-8-chloro-11-[[4-[3-[(2,2-dimethyl-1-oxopentyl)ethylamino]propyl]-1-piperidinyl]acetyl]-6H-pyrido[2,3-b][1,4]benzodiazepin-6-one]
scopolamine-induced amnesia [4]: improves scopolamine-induced amnesia | impaired ACh release and cognitive deficits [5]: reverses, in a dose-dependent manner | cognitive deficits [6]: attenuate cognitive deficits

CCn1nnc(C2=CCCN(C)C2)n1 [Lu 25-109, 5-(2-ethyl-2H-tetrazol-5-yl)-1-methyl-1,2,3,6-tetrahydropyridine]
side effects ([7]; anorexia, nausea, diarrhea, increased sweating, increased with dose): prominent cholinergic side effects | primary and secondary variables versus placebo (antidementia efficacy) ([7]; three doses, 6 months, 496 patients with probable AD): no significant differences | fixed-dose Maximum Tolerated Dose [8]: 150 mg t.i.d.

COc1ccc([S+]([O-])c2ccc(C(C#N)N3CCN(C4CCCCC4)CC3)cc2)cc1 (stereo not drawn) [SCH 57790, 4-cyclohexyl-alpha-[4[[4-methoxyphenyl]sulphinyl]-phenyl]-1-piperazineacetonitrile]
brain acetylcholine release ([9]; in vivo): dose-related increase | cognitive performance ([9]; rodents and nonhuman primates): enhances cognitive performance

CCCS(=O)(=O)N1CCC(C)(N2CCN([C@@H](C)c3ccc(S(=O)(=O)c4ccc5c(c4)OCO5)cc3)[C@H](C)C2)CC1 [SCH 72788, 4-[4-[1(S)-[4-[(1,3-benzodioxol-5-yl)sulfonyl]phenyl]ethyl]-3(R)-methyl-1-piperazinyl]-4-methyl-1-(propylsulfonyl)piperidine]
ACh release [10]: increases ACh release | activity in a rodent model of cognition [10]: active

Cc1cccc(C(=O)N2CCC(N3CCC(C4(c5ccc(S(=O)(=O)c6cccc(Cl)c6)cc5)OCCO4)CC3)CC2)c1N [SCH-217443, 1′-(2-amino-3-methylbenzoyl)-4-[[[(3-chlorophenyl)sulfonyl]phenyl]ethylenedioxymethyl]-1,4′-bipiperidine]
activity in a rat model of cognition [11]: shows activity

COc1ccccc1CNCCCCCCNCCCCCCCCNCCCCCCNCc1ccccc1OC [methoctramine, N,N′-bis[6-[(2-methoxybenzyl)amino]hexyl]-1,8-octanediamine]
procedural memory performance [12]: improves procedural memory performance

CCN(CC)CC#CCOC(=O)C(O)(c1ccccc1)C1CCCCC1 (centres unmarked) [oxybutynin, 4-diethylaminobut-2-ynyl 2-cyclohexyl-2-hydroxy-2-phenylethanoate]
brain penetration [13]: presence of radiolabel in the brain

O=C(O[C@H]1CN2CCC1CC2)N1CCc2ccccc2[C@@H]1c1ccccc1 [solifenacin, (1S)-(3R)-1-azabicyclo[2.2.2]oct-3-yl 3,4-dihydro-1-phenyl-2(1H)-iso-quinolinecarboxylate]
effect of solifenacin on cognitive response to otenzepad (percentage of alternation) ([2]; solifenacin pre-treatment 30 min before otenzepad): did not affect cognitive response to otenzepad | antagonism of otenzepad-induced diarrhea (fecal pellets) [14]: dose-dependently antagonized the diarrhea

O=C(O[C@H]1C[C@H]2CC[C@@H](C1)[N+]21CCCC1)C(O)(c1ccccc1)c1ccccc1 [trospium chloride, azoniaspiro[33-benziloyloxy-(1α,5α)-nortropane-8,1′-pyrrolidine] (trospium) chloride]
average plasma half-life [15]: about 18 hours

Source: patent publication US20180360845A1, “MUSCARINIC COMBINATION OF A SELECTIVE M2-ANTAGONIST AND A PERIPHERAL NON-SELECTIVE ANTAGONIST FOR TREATING HYPOCHOLINERGIC DISORDERS” (CHASE PHARMACEUTICALS CORPORATION, priority 2015, published 2018)
